Series [1] has as its system cultured human mast cells (CHMC). Briefly: CHMC low cell density ionomycin activation: tryptase assay. The class given is cell-based. The following applies: read-out: CHMC Ionomycin Tryptase.
Series [2] relates to bone marrow derived mast cells (BMMC). The series is described as follows: BMMC high cell density IgE activation: hexosaminidase. Type of series: cell-based, mouse. The following applies: high cell density; read-out: BMMC anti-IgE Hexos. As to the method: After sensitizing, cells are counted, pelleted (1000 rpm, 5-10 minutes), and resuspended at 1-3×10^6 cells/ml in MT buffer. Add 100 ul of cell suspension to each well and 100 ul of compound dilutions. The final vehicle concentration is 0.5% DMSO. Incubate at 37° C. (5% CO2) for 1 hour. After 1 hour of compound treatment, stimulate cells with 6× stimulus (60 ng/ml DNP-BSA). Mix wells with the cells and allow plates to incubate at 37° C. (5% CO2) for one hour. After 1 hour incubation, pellet cells (10 minutes, 1000 RPM) and collect 200 ul per well of the supernatant, being careful not to disturb pellet, and transfer to a clean tube or 96-well plate. Place the supernatant plate on ice. During the 4-5 hour step (see next) perform the hexosiminidase assay. Resuspend cell pellet in 240 ul WEI-conditioned media containing 0.5% DMSO and corresponding concentration of compound. Incubate BMMC cells for 4-5 hours at 37° C. (5% CO2). After incubation, pellet cells (1000 RPM, 10 minutes) and collect 225 ul per well and place in −80° C. until ready to perform ELISAS. ELISAS are performed on appropriately diluted samples (determined empirically for each donor cell population so that the sample measurement falls within the standard curve) following the supplier's instructions.
Add 50 uL of BMMC cell supernatant (see above) to the hexoseaminidase substrate, place at 37° C. for 30 minutes and read the plate at 5, 10, 15, and 30 minutes on a spectrophotometer.

Series [3] deals with cultured human mast cells (CHMC). The series is described as follows: CHMC low cell density IgE activation: tryptase assay. Type of series: cell-based. The settings on record: read-out: CHMC anti-IgE Tryptase. Put shortly: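 Read-out: tryptase released into supernatant, measured by substrate turnover over 30 min at RT. Low-density CHMC (1000-1500 cells/well, per donor degranulation activity) in MT buffer, 1 hr at 37° C, then anti-IgE challenge 30 min at 37° C.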

The target of a further series is T1, Syk kinase (Homo sapiens, UniProt P43405).
T1 construct: purchased Upstate, Lake Placid NY
The series is described as follows: Syk kinase biochemical fluorescence polarization assay. The following applies: isolated Syk kinase, fluorescence polarization, 4 uM ATP. Background: Polarisation of emitted light reports the rotation of a fluorescent probe.

Series [4] concerns Human Jurkat T-cells (clone N). The series is described as follows: Jurkat T-cell activation (anti-TCR, CD69 upregulation). The class given is cell-based. Put shortly:
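Readout is CD69 upregulation by flow cytometry (anti-CD69-APC, 20 min at 4 °C) after 20 h anti-TCR (C305, 500 ng/ml) stimulation at 37 °C.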

Series [5] in a line: Mouse Reverse Passive Arthus reaction (RPA reaction). The class given is in vivo, C57BL/6 mice. The settings on record: oral. As to the method: In this model system, test compounds are administered at several timepoints prior to administration of Abs and Ags. A solution of rabbit anti-OVA IgG (50 μg in 25 μl/mouse) is injected intradermally, and immediately following is an intravenous injection of chicken egg albumin (20 mg/kg of body weight) in a solution containing 1% Evans blue dye. The degree of edema and hemorrhage is measured in the dorsal skin of C57BL/6 mice using the Evan's Blue dye as an indicator of local tissue damage. Purified polyclonal rabbit IgG is used as a control.
Pretreatment time, in which the test compounds are administered prior to Ab/Ag challenge, depends on the pharmacokinetic (PK) properties of each individual compound. Four hours after induction of Arthus reaction, mice are euthanized, and tissues are harvested for assessment of edema.

Where [6] appears, read: 50 mg/kg, pretreatment time 1.5 hrs.
[7] abbreviates: 50 mg/kg, pretreatment time 1.5 hrs + 4 hours.
The mark [8] stands for this setting: 100 mg/kg, pretreatment time 1.5 hrs.
Setting [9] is: 100 mg/kg, pretreatment time 1.5 hrs + 4 hours.
[10] abbreviates: 100 mg/kg, pretreatment time 1 hrs + 4 hours.

With `CCOC(=O)CCn1ncc2cc(Nc3ncc(F)c(Nc4ccc(F)c(F)c4)n3)ccc21` [Compound R935384], the IC50 in series [1] (low cell density) and in series [2] was over 10 µM in each case.

As to `CCOC(=O)CCn1ncc2cc(Nc3ncc(F)c(Nc4ccc(OC)nc4OC)n3)ccc21` [Compound R935381], the IC50 in series [1] (low cell density) was over 10 µM; in series [2], 7.74 µM.

In the case of `CNC(=O)COc1cccc(Nc2ncc(F)c(Nc3ccc(OC(F)(F)F)c(C(=O)N4CCOCC4)c3)n2)c1` [Compound R950411], the values for the IC50 in series [1] (low cell density) and in series [2] were over 10 µM and 4 µM, respectively.

For `Fc1cnc(Nc2ccc(OCc3ccccc3)c(Cl)c2)nc1Nc1ccc(OCc2ccccc2)c(Cl)c1` [Compound R926965], the IC50 in series [3] (low cell density), in series [1] (low cell density) and in series [2] was over 10 µM throughout.

Regarding `Oc1c(Cl)cc(Nc2ncc(F)c(Nc3ccc(OC(F)(F)F)c(Cl)c3)n2)cc1Cl` [Compound R927046], the IC50 in series [1] (low cell density) was over 10 µM; in series [2], 2.4 µM.

Take `CNC(=O)COc1cccc(Nc2ncc(F)c(Nc3ccc(N4CCOCC4)cc3)n2)c1` [Compound R945367]: the IC50 is over 10 µM in series [1] (low cell density) and 1.29 µM in series [2].

Turning to `CNC(=O)C1Cc2cc(Nc3ncc(F)c(Nc4ccc(OC(C)C)cc4)n3)ccc2O1` (stereo not shown) [Compound R926956], the IC50 was 0.211 µM in series [3] (Low Density), over 10 µM in series [1] (Low Density), 0.38 µM on Syk kinase and 0.749 µM in series [4].

As to `CNC(=O)COc1cccc(Nc2ncc(F)c(Nc3ccc(N4CCN(C(=O)OC)CC4)cc3)n2)c1` [Compound R945368], the IC50 in series [1] (low cell density) is over 10 µM; in series [2], 1.71 µM.

Consider `Cc1ccc(S(=O)(=O)O)cc1.Cc1ccc(S(=O)(=O)O)cc1.OCCCn1ncc2cc(Nc3ncc(F)c(Nc4ccc(Cl)c(Cl)c4)n3)ccc21` [Compound R935451], for which the IC50 in series [3] (low cell density) and in series [1] (low cell density) was over 10 µM each time. Besides, the “% inhibition to vehicle control Edema Size ± SEM” value in series [5] (10 mg/kg, pretreatment time 1.5 hrs) is −14.4 ± 13.3%; in series [5] (30 mg/kg, pretreatment time 1.5 hrs) it was −30.6 ± 15.4%; in series [5] (setting [6]), 74.9 ± 7.5%; in series [5] (setting [8]) it was 77.1 ± 8.0%. The “Plasma Concentration ± SEM (ng/ml) Exposure = Pretreatment Time + 4 hours” value (“Plasma Concentration ± SEM” for short) in series [5] (10 mg/kg, pretreatment time 1.5 hrs + 4 hours) stood at 14.4 ± 1.8 ng/mL; in series [5] (30 mg/kg, pretreatment time 1.5 hrs + 4 hours) it was 78.0 ± 32.0 ng/mL; in series [5] (setting [7]), 385.0 ± 149.4 ng/mL; in series [5] (setting [9]) it was 1459.0 ± 444.4 ng/mL.

For `CNC(=O)COc1cccc(Nc2ncc(F)c(Nc3ccc(OC(F)(F)F)c(C(=O)NC[C@@H](O)CO)c3)n2)c1` [Compound R950410], the IC50 in series [1] (low cell density) and in series [2] was over 10 µM each time.

Regarding `CNC(=O)COc1cccc(Nc2ncc(F)c(Nc3ccc(OC(F)(F)F)c(C(=O)NCCN)c3)n2)c1` [Compound R950406], the IC50 in series [1] (low cell density) and in series [2] was over 10 µM in each case.

Take `CC1(C)Oc2ccc(Nc3nc(Nc4ccc5cn[nH]c5c4)ncc3F)cc2NC1=O.O=S(=O)(O)c1ccccc1` [Compound R935429]: the IC50 was 0.036 µM in series [3] (low cell density) and over 10 µM in series [1] (low cell density). Also, the “% inhibition to vehicle control Edema Size ± SEM” value in series [5] (setting [6]) is recorded as −5.1 ± 14.9%; in series [5] (100 mg/kg, pretreatment time 0 hrs), −2.8 ± 14.8%; in series [5] (setting [8]), 67.1 ± 13.8%; in series [5] (100 mg/kg, pretreatment time 2 hrs), 55.5 ± 7.9%; in series [5] (100 mg/kg, pretreatment time 4 hrs), 35.0 ± 11.4%. Besides, the entries for the “Plasma Concentration ± SEM” value in series [5] (setting [7]), in series [5] (setting [10]) and in series [5] (setting [9]) were 164 ± 89 ng/mL, 401 ± 96 ng/mL and 206 ± 115 ng/mL, respectively.

On to `CNC(=O)COc1cccc(Nc2ncc(F)c(Nc3ccc(OC(F)(F)F)c(C(=O)NC)c3)n2)c1` [Compound R950407], for which the IC50 in series [1] (low cell density) and in series [2] was over 10 µM each time.

With `COc1ccc(Nc2nc(Nc3cc(Cl)c(O)c(Cl)c3)ncc2F)cc1Cl` [Compound R927044], the IC50 is over 10 µM in series [1] (low cell density) and 4.28 µM in series [2].

In the case of `CNC(=O)CCn1ncc2cc(Nc3ncc(F)c(Nc4ccc(F)c(F)c4)n3)ccc21` [Compound R935385], the IC50 is over 10 µM in series [1] (low cell density) and 0.217 µM in series [2].

For the compound `CNC(=O)COc1cccc(Nc2ncc(F)c(NC3CC3)n2)c1` [Compound R945372], the IC50 in series [1] (low cell density) was over 10 µM; in series [2], 0.923 µM.

`COc1cc(Nc2ncc(F)c(Nc3ccc4c(c3)NC(=O)C(C)(C)O4)n2)cc(OC)c1.Cc1ccc(S(=O)(=O)O)cc1` [Compound R927070]: the values for the IC50 in series [3] (low cell density) and in series [1] (low cell density) were 0.054 µM and 5.24 µM, respectively. The “% inhibition to vehicle control Edema Size ± SEM” value is recorded as 56 ± 15% in series [5] (50 mg/kg, pretreatment time 1 hrs); 31.1 ± 17.29% in series [5] (setting [6]); 61 ± 14% in series [5] (100 mg/kg, pretreatment time 1 hrs); 55.5 ± 7.7% in series [5] (setting [8]). The “Plasma Concentration ± SEM” value turned out to be 1755 ± 310 ng/mL in series [5] (50 mg/kg, pretreatment time 1 hrs + 4 hours); 2851 ± 712 ng/mL in series [5] (setting [10]); 4095 ± 1187 ng/mL in series [5] (setting [9]).

As for `CC(=O)N(C)c1ccc(Nc2ncc(F)c(NC3CC3)n2)cc1` [Compound R945369], the IC50 in series [1] (low cell density) was over 10 µM; in series [2], 1.27 µM; at Syk kinase it was 1.85 µM.

Regarding `Cc1cc(Nc2ncc(F)c(Nc3ccc4c(c3)NC(=O)C(C)(C)O4)n2)cc(Cl)c1O` [Compound R940358], the IC50 amounted to 0.03 µM in series [3] (low cell density), 4.3 µM in series [1] (low cell density), 0.023 µM against Syk kinase and 0.159 µM in series [4].

Regarding `CNC(=O)COc1cccc(Nc2ncc(F)c(Nc3ccc(OC(F)(F)F)c(C(=O)N4CCCCC4)c3)n2)c1` [Compound R950409], the IC50 in series [1] (low cell density) was over 10 µM; in series [2], 3.24 µM.

On to `CNCCNC(=O)c1cc(Nc2nc(Nc3cccc(OCC(=O)NC)c3)ncc2F)ccc1OC(F)(F)F` [Compound R950408], for which the results for the IC50 in series [1] (low cell density) and in series [2] were over 10 µM and 4.82 µM, respectively.

For the compound `CNC(=O)CCn1ncc2cc(Nc3ncc(F)c(Nc4ccc(Cl)cc4)n3)ccc21` [Compound R935382], the IC50 is over 10 µM in series [1] (low cell density) and 0.2 µM in series [2].

With `COc1ccc(Nc2nc(Nc3ccc4cc[nH]c4c3)ncc2F)cc1Cl.Cc1ccc(S(=O)(=O)O)cc1` [Compound R927087], the values for the IC50 in series [3] (low cell density) and in series [1] (low cell density) were 0.436 µM and over 10 µM, respectively. Also, the “% inhibition to vehicle control Edema Size ± SEM” value in series [5] (setting [6]) is listed as −10.4 ± 14.4%; in series [5] (setting [8]) it was 28.7 ± 16.6%. Besides, the entries for the “Plasma Concentration ± SEM” value in series [5] (setting [7]) and in series [5] (setting [9]) were 26.9 ± 8.0 ng/mL and 28.7 ± 10.8 ng/mL, respectively.

(Values after patent US8158621B2, “Methods of treating or preventing autoimmune diseases with 2,4-pyrimidinediamine compounds” (Rigel Pharmaceuticals, Inc., priority 2002, dated 2012).)
